Data set [1] has as its system hiPS-CMs (clone C2a, ventricular-like). The data set is described as follows: Manual patch-clamp of spontaneous action potentials in hiPS-CMs. In kind it is cell-based, human. The source says: For this study, we used a non-commercial hiPS cell clone (C2a) that has been fully characterized earlier in the laboratory. The properties of the cardiomyocytes derived from this clone may differ to some extent from those of commercial clones, but this should not affect the nature of the conclusions derived from our investigations. […] The effects on AP characteristics also included the depolarization of the maximum diastolic potential (MDP) from −52.2 ± 1.7 mV to −36.1 ± 2.3 mV (n = 7, Figure 2D) and the decrease of maximal upstroke velocity from 6.9 ± 0.9 mV/s (vehicle, n = 7) to 4.6 ± 0.9 mV/s (BeKm-1, n = 7), representing an average 1.5-fold reduction (Figure 2E). […] The action potential duration (APD) at 30% and 50% of repolarization were spared, which is consistent with the role of hERG in the late phase of repolarization in these cells (Figure 2G). In contrast, BeKm-1 was able to delay the repolarization of these cells, increasing the APD at 90% repolarization (APD90) from 95.0 ± 8.4 ms (vehicle, n = 7) to 117.4 ± 11.3 ms (BeKm-1, n = 7; 23% increase) (Figure 2G). While these values could theoretically be corrected for the BeKm-1-induced variability in cycle length (Figure 2C) using the Fridericia cube root formula, the corrected data would be meaningless because of the additional depolarization in MDP (Figure 2D).
hiPS-CMs: All experiments were performed on the human-induced pluripotent stem cell (hiPSC) clone C2a that has been previously characterized, including cardiac differentiation and electrophysiology data. Cells were expanded on stem cell-qualified matrigel-coated plates (0.05 mg/mL; BD Bioscience, Le Pont de Claix, France) and cultured in StemMACS iPS-BREW XF medium (Miltenyi Biotec, Paris, France). Cells were passaged every […] using Gentle Cell Dissociation Buffer (StemCell Technologies, Grenoble, France). Prior to differentiation, cells were cultured as a monolayer in StemMACS iPS-brew supplemented with 1 × Y-27632 Rho-associated, coiled-coil containing protein kinase (ROCK) inhibitor (StemCell Technologies, Grenoble, France). When hiPSCs reached proper confluence, they were differentiated into cardiomyocytes using previously described « Matrix sandwich » protocol. At day 20 ± 1 of differentiation, beating cardiomyocytes were manually dissected and isolated from non-beating cells. Briefly, cardiomyocytes were washed with phosphate-buffered saline (PBS) and treated with TrypLE Express (10x) (Thermo Fisher Scientific, Illkirch-Graffenstaden, France) for 5 min at 37 °C. The enzyme was inactivated by adding RPMI1640 medium containing 20% (vol/vol) KnockOut Serum Replacement (KSR) (Thermo Fisher Scientific, Illkirch-Graffenstaden, France). The supernatant was removed, and cells were suspended in RPMI1640 medium containing 20% (vol/vol) KSR and ROCK inhibitor. Then, the cells were plated on specific supports suitable for functional assessments.
Manual patch clamp: Single-cell dissociated hiPS-CMs were plated at low density on matrigel-coated 35 mm Petri dishes (Nunc from Thermo Fisher Scientific, Illkirch-Graffenstaden, France). Electrophysiological experiments were performed 12 to 14 days after dissociation. APs were recorded in the current-clamp mode, using the amphotericin-B-perforated patch-clamp technique. All experiments were conducted at 37 °C. APs were recorded either at basal state (spontaneous APs) or using the dynamic patch-clamp method to electronically mimic the expression of the inward rectifier potassium current, IK1 [23, 24]. The resting membrane potential (RMP) was set to −80 ± 5 mV by injecting 2 to 2.8 pA/pF in silico IK1 density. This level of current was set so that about 80% of the ventricular-like hiPS-CMs could reach these physiological RMP values. The remaining cells were discarded from the recording process. […]
On the technique in general: Patch clamp records ionic current or voltage across a cell membrane.

The test system of another data set is rabbit heart. Further details: method as in PMID 21205913. Conditions: ref [8]; cited from earlier work.

“Also recorded” adds a separate entry of the source. Positions of bridges follow the written chain, without caps; N, C: chain ends. Residues, ends and D or L forms follow the SMILES beside them.

As for `CC[C@H](C)[C@H](NC(=O)[C@H](CC(=O)O)NC(=O)[C@@H](NC(=O)[C@@H]1CCCN1C(=O)[C@@H](N)CCCNC(=N)N)[C@@H](C)O)C(=O)N[C@@H](CCCCN)C(=O)N[C@H]1CSSC[C@@H]2NC(=O)[C@H](CCCNC(=N)N)NC(=O)CNC(=O)[C@H](CC(N)=O)NC(=O)[C@H]([C@@H](C)O)NC(=O)[C@H](CCCCN)NC(=O)CNC(=O)[C@H](Cc3ccccc3)NC(=O)[C@H](CCCNC(=N)N)NC(=O)[C@H](CO)NC(=O)[C@H](CCCCN)NC(=O)[C@@H]3CSSC[C@@H](C(=O)N[C@@H](Cc4ccccc4)C(=O)O)NC(=O)[C@H](CC(=O)O)NC(=O)[C@H](CSSC[C@H](NC(=O)[C@H](CCC(N)=O)NC(=O)[C@H](Cc4ccc(O)cc4)NC(=O)[C@H](CO)NC(=O)[C@H](CCC(=O)O)NC(=O)[C@H](CO)NC1=O)C(=O)N[C@@H](Cc1ccccc1)C(=O)N1CCC[C@H]1C(=O)N[C@@H](C(C)C)C(=O)N3)NC(=O)[C@H](Cc1ccccc1)NC(=O)CNC(=O)[C@H](CC(N)=O)NC(=O)[C@H](C(C)C)NC2=O` [BeKm-1] (H-RPTDIKCSESYQCFPVCKSRFGKTNGRCVNGFCDCF-OH; disulfide 7-28, 13-33, 17-35 (inferred); N-terminus and C-terminus assumed), in data set [1] (5 nM BeKm-1, 37 °C, vehicle 2.50 ± 0.20 Hz, n = 7, mean ± SEM, significant), the AP frequency worked out at 0.70 ± 0.26 Hz. In addition, in data set [1] (5 nM application, Figure S2), the “kinetics of AP parameter changes” value is listed as “changed according to similar kinetics”. The “maximal upstroke velocity, fold reduction” value in data set [1] (5 nM vs vehicle, average) is given as 1.5 -fold. Also, the APD90 increase in data set [1] (5 nM vs vehicle, spontaneous APs) worked out at 23%. Further, the “restitution of AP parameters after toxin washout” value in data set [1] (5 nM, representative time course, Figure S2) is given as “rather rapid restitution of these parameters after toxin washout”. Further, the “APD at 30% and 50% of repolarization” value in data set [1] (5 nM, spontaneous APs) is given as “spared”. Besides, the “APD at 90% repolarization (APD90)” value in data set [1] (5 nM, spontaneous APs, vehicle 95.0 ± 8.4 ms, n = 7, mean ± SEM, not corrected for cycle length) is recorded as 117.4 ± 11.3 ms. Further, in data set [1] (5 nM, Poincaré plot), the APD90 variability entry is on record as “increased”. Besides, the AP rhythm variability result in data set [1] (5 nM, Poincaré plot of consecutive APs) is on record as “increase of rhythm variability”. The “maximal upstroke velocity (dV/dtmax)” value in data set [1] (5 nM, vehicle 6.9 ± 0.9 mV/s, n = 7, mean ± SEM) is 4.6 ± 0.9 mV/s. Besides, the AP overshoot in data set [1] (5 nM, vehicle 29.9 ± 3.1 mV, n = 7, mean ± SEM, not significant) turned out to be 22.2 ± 6.4 mV. Further, the “maximum diastolic potential (MDP)” value in data set [1] (5 nM, vehicle −52.2 ± 1.7 mV, n = 7, mean ± SEM) is listed as −36.1 ± 2.3 mV. The “beating / AP arrest” value in data set [1] (100 nM, representative trace of single hiPS-CM) was “AP arrest; also recorded: complete beating arrest by a major membrane depolarization”. Moreover, the “early afterdepolarizations (EADs)” value in data set [1] (spontaneously beating ventricular-like cells) is “never observed”. Besides, the reversibility on wash entry in data set [1] (wash after 5 nM, n = 5) is on record as “fully restored all parameters”. For the same molecule, the “QT interval in ECG” value with rabbit heart was “prolongs the QT interval”.

The values above are taken from article PMC7582727, “Functional Impact of BeKm-1, a High-Affinity hERG Blocker, on Cardiomyocytes Derived from Human-Induced Pluripotent Stem Cells” (International Journal of Molecular Sciences, 2020).
